According to US8431563B2 (priority 2010, dated 2013):

Legend:
[1] = biological target: T1, GKRP (Glucokinase Regulatory Protein) with human His-hepatic GK (Homo sapiens, UniProt Q14397); experiment: GKRP LC MS/MS Biochemical Assay; settings: 13C-glucose-6-phosphate formation, 1 μM GKRP (10×), 30 nM GK (5×)
T1 sequence (Q14397 1-625): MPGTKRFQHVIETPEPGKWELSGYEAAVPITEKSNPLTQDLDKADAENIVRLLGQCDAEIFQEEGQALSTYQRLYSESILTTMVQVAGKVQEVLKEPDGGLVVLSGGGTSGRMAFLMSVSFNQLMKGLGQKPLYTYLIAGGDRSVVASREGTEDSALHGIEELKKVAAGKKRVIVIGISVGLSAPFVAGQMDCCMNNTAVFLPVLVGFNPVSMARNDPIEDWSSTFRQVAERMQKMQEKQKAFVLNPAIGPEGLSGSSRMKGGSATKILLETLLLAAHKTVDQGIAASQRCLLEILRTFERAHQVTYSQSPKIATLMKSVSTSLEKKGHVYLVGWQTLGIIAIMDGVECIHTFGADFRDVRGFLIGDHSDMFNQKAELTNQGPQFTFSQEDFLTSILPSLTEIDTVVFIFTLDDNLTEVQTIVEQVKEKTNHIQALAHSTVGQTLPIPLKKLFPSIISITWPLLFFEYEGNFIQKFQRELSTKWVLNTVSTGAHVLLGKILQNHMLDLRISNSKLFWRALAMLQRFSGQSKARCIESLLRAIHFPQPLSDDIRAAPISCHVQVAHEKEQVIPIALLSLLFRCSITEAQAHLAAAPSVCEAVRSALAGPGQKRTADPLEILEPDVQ
Procedure: GKRP LC MS/MS Biochemical Assay
(§1) This assay is used to directly measure the formation of ^13C-glucose-6-phosphate from ^13C-glucose by liquid chromatography-mass spectrometry (LC MS/MS). Begin by preparing the following solutions: Compound Buffer (CB): 50 mM Tris, pH 7.5/4 mM MgCl2/6% DMSO/fresh 10 mM DTT from 1M frozen stock. Enzyme Buffer (EB): 50 mM Tris, pH 7.5/4 mM MgCl2/6% DMSO/fresh 0.1% BSA/fresh 0.01% Brij-35 (10% BSA and 1% Brij-35 stock). GK (Glucokinase) Working Stock (5×): Dilute human His-hepatic GK to 30 nM in EB buffer. […] After 30 minutes add 10 μl of GK Working Stock (5×). Re-seal the plate and incubate for another 30 minutes at room temperature while mixing. After the second 30 minutes, stop the reaction by the addition of 50 μl of 100% acetonitrile, seal, and mix for 5-10 minutes. Run 10 μl of this sample through the LC MS/MS (API 3200, Applied Biosystems Inc., Carlsbad, Calif.).

[2] = biological target: T1, GKRP (Glucokinase Regulatory Protein) with human His-hepatic GK; experiment: GKRP NADPH Coupled Assay; format: biochemical; settings: indirect measure of glucose-6-phosphate, fluorescence, 1 μM GKRP (10×), 20 nM GK (5×)
Procedure: as §1
This assay is used as an indirect measure of glucose-6-phosphate (G6P) formed from glucose due to the enzymatic activity of glucokinase. Assay format is the same as for GKRP LC MS/MS Biochemical Assay with the following exceptions. GK Working Stock (5×): Dilute human His-hepatic GK to 20 nM in EB buffer. Stop & Detection Reagent (2×): Dilute β-nicotinamide adenine dinucleotide phosphate sodium salt (β-NADP) (Aldrich-Sigma, St. Louis, Mo.) to 2 mM from 100 mM stock (stock in 10 mM Tris, pH 9.2) and dilute glucose-6-phosphate dehydrogenase (Aldrich-Sigma, St. Louis, Mo.) to 0.04 Unit/μl from 10 Unit/μl (stock in 10 mM Tris pH 7.5/0.05% Brij-35) in 0.2 M Tris, pH 9.2/8% DMSO. After the initial 30 minute incubation add 10 μl of 20 nM GK diluted in EB (5×). Re-seal the plate and incubate for another 1 hour at room temperature while mixing. After 1 hour remove the seal and add 50 μl of Stop & Detection Reagent and incubate for 5 minutes at room temperature while mixing.

[3] = read-out: GK-GKRP EC50 (LC MS/MS)
[4] = read-out: GK-GKRP EC50 (NADPH-coupled)

CC(O)(c1ccc(N2CCN(S(=O)(=O)c3cccs3)CC2c2cc(Cl)ccc2Cl)cc1)C(F)(F)F (mixture of isomers) [Example 13, 2-(4-(2-(2,5-dichlorophenyl)-4-(2-thiophenylsulfonyl)-1-piperazinyl)phenyl)-1,1,1-trifluoro-2-propanol]
EC50 ([1]; GK-GKRP EC50 (LC MS/MS)): 1960 nM | EC50 ([2]; GK-GKRP EC50 (NADPH-coupled)): 2640 nM

C[C@H]1CN(S(=O)(=O)c2ccccc2)CCN1c1ccc(C(C)(O)C(F)(F)F)cc1 (mixture of isomers) [Example 28, 1,1,1-trifluoro-2-(4-((2S)-2-methyl-4-(phenylsulfonyl)-1-piperazinyl)phenyl)-2-propanol]
EC50 ([1]; GK-GKRP EC50 (LC MS/MS)): 4010 nM | EC50 ([2]; GK-GKRP EC50 (NADPH-coupled)): 3120 nM

C[C@H]1CN(S(=O)(=O)c2nnc(N)s2)CCN1c1ccc(C(C)(O)C(F)(F)F)cc1 (mixture of isomers) [Example 35, 2-(4-((2S)-4-((5-amino-1,3,4-thiadiazol-2-yl)sulfonyl)-2-methyl-1-piperazinyl)phenyl)-1,1,1-trifluoro-2-propanol]
EC50 ([1]; GK-GKRP EC50 (LC MS/MS)): 5620 nM | EC50 ([2]; GK-GKRP EC50 (NADPH-coupled)): 3040 nM

CC(O)(c1ccc(N2CCN(S(=O)(=O)c3cccs3)CC2Cc2ccccc2F)cc1)C(F)(F)F (mixture of isomers) [Example 38, 1,1,1-trifluoro-2-(4-(2-(2-fluorobenzyl)-4-(2-thiophenylsulfonyl)-1-piperazinyl)phenyl)-2-propanol]
EC50 ([1]; GK-GKRP EC50 (LC MS/MS)): 850 nM | EC50 ([2]; GK-GKRP EC50 (NADPH-coupled)): 515 nM

CC(O)(c1ccc(N2CCN(S(=O)(=O)c3cccs3)CC2Cc2cccc(F)c2)cc1)C(F)(F)F (mixture of isomers) [Example 39, 1,1,1-trifluoro-2-(4-(2-(3-fluorobenzyl)-4-(2-thiophenylsulfonyl)-1-piperazinyl)phenyl)-2-propanol]
EC50 ([1]; GK-GKRP EC50 (LC MS/MS)): 1090 nM | EC50 ([2]; GK-GKRP EC50 (NADPH-coupled)): 802 nM

CC(O)(c1ccc(N2CCN(S(=O)(=O)c3cccs3)CC2Cc2ccc(F)cc2)cc1)C(F)(F)F (mixture of isomers) [Example 40, 1,1,1-trifluoro-2-(4-(2-(4-fluorobenzyl)-4-(2-thiophenylsulfonyl)-1-piperazinyl)phenyl)-2-propanol]
EC50 ([1]; GK-GKRP EC50 (LC MS/MS)): 1250 nM | EC50 ([2]; GK-GKRP EC50 (NADPH-coupled)): 895 nM

CC(O)(c1ccc(N2CCN(S(=O)(=O)c3cccs3)CC2COCc2ccccc2)cc1)C(F)(F)F (mixture of isomers) [Example 44 Step 5, 2-(4-(2-((benzyloxy)methyl)-4-(2-thiophenylsulfonyl)-1-piperazinyl)phenyl)-1,1,1-trifluoro-2-propanol]
EC50 ([1]; GK-GKRP EC50 (LC MS/MS)): 617 nM | EC50 ([2]; GK-GKRP EC50 (NADPH-coupled)): 420 nM

CC1(C)CN(CC2CN(S(=O)(=O)c3cccs3)CCN2c2ccc(C(C)(O)C(F)(F)F)cc2)CCO1 (mixture of isomers) [Example 47, 2-(4-(2-((2,2-dimethyl-4-morpholinyl)methyl)-4-(2-thiophenylsulfonyl)-1-piperazinyl)phenyl)-1,1,1-trifluoro-2-propanol]
EC50 ([1]; GK-GKRP EC50 (LC MS/MS)): 295 nM | EC50 ([2]; GK-GKRP EC50 (NADPH-coupled)): 182 nM

CC(O)(c1ccc(N2CCN(S(=O)(=O)c3cccs3)CC2CN2CCOCC2CO)cc1)C(F)(F)F (mixture of isomers) [Example 48, 1,1,1-trifluoro-2-(4-(2-((3-(hydroxymethyl)-4-morpholinyl)methyl)-4-(2-thiophenylsulfonyl)-1-piperazinyl)phenyl)-2-propanol]
EC50 ([1]; GK-GKRP EC50 (LC MS/MS)): 606 nM | EC50 ([2]; GK-GKRP EC50 (NADPH-coupled)): 389 nM

CC1CN(CC2CN(S(=O)(=O)c3cccs3)CCN2c2ccc(C(C)(O)C(F)(F)F)cc2)CCO1 (mixture of isomers) [Example 49, 1,1,1-trifluoro-2-(4-(2-((2-methyl-4-morpholinyl)methyl)-4-(2-thiophenylsulfonyl)-1-piperazinyl)phenyl)-2-propanol]
EC50 ([1]; GK-GKRP EC50 (LC MS/MS)): 707 nM | EC50 ([2]; GK-GKRP EC50 (NADPH-coupled)): 647 nM

CC(O)(c1ccc(N2CCN(S(=O)(=O)c3cccs3)CC2CN2CCC(F)(F)CC2)cc1)C(F)(F)F (mixture of isomers) [Example 51, 2-(4-(2-((4,4-difluoro-1-piperidinyl)methyl)-4-(2-thiophenylsulfonyl)-1-piperazinyl)phenyl)-1,1,1-trifluoro-2-propanol]
EC50 ([1]; GK-GKRP EC50 (LC MS/MS)): 1530 nM | EC50 ([2]; GK-GKRP EC50 (NADPH-coupled)): 1050 nM

CC(O)(c1ccc(N2CCN(S(=O)(=O)c3cccs3)CC2CN2CCOC(CO)C2)cc1)C(F)(F)F (mixture of isomers) [Example 52, 1,1,1-trifluoro-2-(4-(2-((2-(hydroxymethyl)-4-morpholinyl)methyl)-4-(2-thiophenylsulfonyl)-1-piperazinyl)phenyl)-2-propanol]
EC50 ([1]; GK-GKRP EC50 (LC MS/MS)): 1170 nM | EC50 ([2]; GK-GKRP EC50 (NADPH-coupled)): 1620 nM

CC(O)(c1ccc(N2CCN(S(=O)(=O)c3cccs3)CC2CN2CC(O)C2)cc1)C(F)(F)F (mixture of isomers) [Example 53, 1-((4-(2-thiophenylsulfonyl)-1-(4-(2,2,2-trifluoro-1-hydroxy-1-methylethyl)phenyl)-2-piperazinyl)methyl)-3-azetidinol]
EC50 ([1]; GK-GKRP EC50 (LC MS/MS)): 1790 nM | EC50 ([2]; GK-GKRP EC50 (NADPH-coupled)): 2260 nM

CC(C)(CO)NCC1CN(S(=O)(=O)c2cccs2)CCN1c1ccc(C(C)(O)C(F)(F)F)cc1 (mixture of isomers) [Example 54, 2-methyl-2-(((4-(2-thiophenylsulfonyl)-1-(4-(2,2,2-trifluoro-1-hydroxy-1-methylethyl)phenyl)-2-piperazinyl)methyl)amino)-1-propanol]
EC50 [1, 3]: 2780 nM | EC50 [2, 4]: 2970 nM

CC(O)(c1ccc(N2CCN(S(=O)(=O)c3cccs3)CC2CC#N)cc1)C(F)(F)F (mixture of isomers) [Example 55, (4-(2-thiophenylsulfonyl)-1-(4-(2,2,2-trifluoro-1-hydroxy-1-methylethyl)phenyl)-2-piperazinyl)acetonitrile]
EC50 [1, 3]: 3940 nM | EC50 [2, 4]: 3030 nM

CC(C)CC1CN(S(=O)(=O)c2cccs2)CCN1c1ccc(C(C)(O)C(F)(F)F)cc1 (mixture of isomers) [Example 57, 1,1,1-trifluoro-2-(4-(2-(2-methylpropyl)-4-(2-thiophenylsulfonyl)-1-piperazinyl)phenyl)-2-propanol]
EC50 [1, 3]: 1020 nM | EC50 [2, 4]: 655 nM

CC(O)(c1ccc(N2CCN(S(=O)(=O)c3cccs3)CC2CC2CCCCC2)cc1)C(F)(F)F (mixture of isomers) [Example 58, 2-(4-(2-(cyclohexylmethyl)-4-(2-thiophenylsulfonyl)-1-piperazinyl)phenyl)-1,1,1-trifluoro-2-propanol]
EC50 [1, 3]: 1320 nM | EC50 [2, 4]: 1000 nM

O=S(=O)(c1cccs1)N1CCN(c2ccc(C(O)(CO)C(F)(F)F)cc2)CC1 (single isomer, unassigned) [Example 66 Peak #2, 3,3,3-trifluoro-2-(4-(4-(2-thiophenylsulfonyl)-1-piperazinyl)phenyl)-1,2-propanediol]
EC50 [1, 3]: 1260 nM

O=S(=O)(c1cccs1)N1CCN(c2ccc(C(O)(CO)C(F)(F)F)cc2)[C@@H](Cc2ccccc2)C1 (single isomer, unassigned) [Example 68 Peak #1]
EC50 ([1]; GK-GKRP EC50 (LC MS/MS)): 870 nM

O=S(=O)(c1cccs1)N1CCN(c2ccc(C(O)(CO)C(F)(F)F)cc2)[C@@H](Cc2ccccc2)C1 (single isomer, unassigned) [Example 68 Peak #2]
EC50 ([1]; GK-GKRP EC50 (LC MS/MS)): 94 nM

O=S(=O)(c1ccccc1)N1CCN(c2ncc(C(O)(C(F)(F)F)C(F)(F)F)cn2)CC1 [Example 23, 1,1,1,3,3,3-hexafluoro-2-(2-(4-(phenylsulfonyl)-1-piperazinyl)-5-pyrimidinyl)-2-propanol]
EC50 ([1]; GK-GKRP EC50 (LC MS/MS)): 1310 nM
